# Patent US20230403873A1, “ORGANIC COMPOUND AND ORGANIC LIGHT-EMITTING DEVICE” (CANON KABUSHIKI KAISHA, priority 2022, published 2023)
# Columns and labels:
# Format in all cases: physicochemical
# [1] = Evaluation of thermal properties: weight-loss initiation temperature by thermogravimetry/differential thermal analyzer STA7200; settings: under atmospheric pressure
# Protocol: (§1) The weight-loss initiation temperatures of compounds (1), (5), (10) and compound A, serving as a compound of a comparative example, under atmospheric pressure were measured with a thermogravimetry/differential thermal analyzer STA7200 (available from Hitachi High-Tech Science Corporation). In addition, the sublimation temperature was defined as the temperature at which the rate of weight loss under vacuum (2 Pa) reached 5% and was measured with a thermogravimetry/differential thermal analyzer TA7000 (available from Hitachi High-Tech Science Corporation).
# [2] = Evaluation of thermal properties: sublimation temperature under vacuum by thermogravimetry/differential thermal analyzer TA7000; settings: temperature at which the rate of weight loss under vacuum (2 Pa) reached 5%
# Protocol: as §1
# [3] = Evaluation of solubility in toluene; settings: organic solvent or mixture, thermodynamic from solid; 50 mg in 1 mL of toluene, stirred at room temperature
# Protocol: First, 50 mg of compound (25), 50 mg of compound (29), which were synthesized in the above examples, and 50 mg of compound A as a comparative example were placed in respective sample bottles each containing 1 mL of toluene. The mixtures were stirred at room temperature to determine whether the compounds were dissolved.
SMILES,Weight-loss initiation temperature [1] [°C],Sublimation temperature [2] [°C],solubility [3] [mg/mL]
CC(C)(C)c1cc2ccc3cc4c(c5ccc(c1)c2c35)-c1ccc(-c2cccc(-c3ccc5c(c3)C(C)(C)c3cc6ccc7cc(C(C)(C)C)cc8ccc(c3-5)c6c78)n2)cc1C4(C)C [(10)],260,205,
CC(C)(C)c1cc2ccc3cc4c(c5ccc(c1)c2c35)-c1ccc(-c2cc(-c3ccc5c(c3)C(C)(C)c3cc6ccc7cc(C(C)(C)C)cc8ccc(c3-5)c6c78)ncn2)cc1C4(C)C [Compound (1)],450,385,
CC(C)(C)c1cc2ccc3cc4c(c5ccc(c1)c2c35)-c1ccc(-c2ncnc(-c3ccc5c(c3)C(C)(C)c3cc6ccc7cc(C(C)(C)C)cc8ccc(c3-5)c6c78)n2)cc1C4(C)C [Compound (5)],385,315,
CC(C)(C)c1cc2ccc3cc4c(c5ccc(c1)c2c35)-c1ccc(-c2ccc3c(c2)C2(c5ccccc5-c5ccccc52)c2cc(-c5ccc6c(c5)C(C)(C)c5cc7ccc8cc(C(C)(C)C)cc9ccc(c5-6)c7c89)ccc2-3)cc1C4(C)C [Compound (25)],,,> 50
CC(C)(C)c1cc2ccc3cc4c(c5ccc(c1)c2c35)-c1ccc(-c2ccc3c(c2)C2(c5ccccc5-3)c3ccccc3-c3ccc(-c5ccc6c(c5)C(C)(C)c5cc7ccc8cc(C(C)(C)C)cc9ccc(c5-6)c7c89)cc32)cc1C4(C)C [Compound (29)],,,> 50
CC(C)(C)c1cc2ccc3cc4c(c5ccc(c1)c2c35)-c1ccc(-c2ccc(-c3ccc(-c5ccc6c(c5)C(C)(C)c5cc7ccc8cc(C(C)(C)C)cc9ccc(c5-6)c7c89)cc3)cc2)cc1C4(C)C [Compound A],550,470,< 50
